The source of these data is patent US9440938B2, “Sulfonamide derivative having PGD2 receptor antagonistic activity” (SHIONOGI & CO., LTD., priority 2005, dated 2016).

pIC50, pKi: −log10 of the molar value. Where two headings read alike, the source gives them in different places.

Assay [1] concerns the target T1, DP receptor (Homo sapiens, UniProt Q13258).
T1 construct: endogenous in cells; host or cells: washed platelets from peripheral blood of a healthy volunteer
T1 sequence (Q13258 1-359): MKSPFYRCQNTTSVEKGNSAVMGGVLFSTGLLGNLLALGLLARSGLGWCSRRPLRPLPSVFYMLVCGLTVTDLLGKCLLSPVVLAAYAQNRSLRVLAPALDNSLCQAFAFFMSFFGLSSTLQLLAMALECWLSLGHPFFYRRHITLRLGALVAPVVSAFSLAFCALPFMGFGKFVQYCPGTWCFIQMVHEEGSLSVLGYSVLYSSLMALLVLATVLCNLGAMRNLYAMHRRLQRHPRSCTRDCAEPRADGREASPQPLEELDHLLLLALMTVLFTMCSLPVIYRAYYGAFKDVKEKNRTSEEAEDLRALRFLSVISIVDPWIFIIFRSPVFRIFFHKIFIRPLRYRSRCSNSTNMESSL
Nature of the assay: cAMP assay with washed platelet (DP inhibitory activity in vitro). The assay is classed as cell-based. The settings on record: washed human platelets, 100 nM PGD2, cAMP by HTRF. Here is the method: 1) Preparation of Platelet and a Method of cAMP Assay
30 mL of peripheral blood was collected from a healthy volunteer using a syringe containing one ninth amount of 3.8% sodium citrate. After being centrifuged at 180 g for 10 minutes at room temperature, a supernatant was collected and used as Platelet Rich Plasma (PRP). The resulting PRP was washed with wash buffer and centrifuged three times (Washed Platelet: WP) and platelets were counted by a microcell counter. WP was added to a plate in amount of 1.5×10^8/assay and the plate was treated with 3-isobutyl-1-methylxanthin (IBMX; 0.5 mM) for 5 minutes. A reaction was initiated by adding 100 nM of PGD2 5 min after an addition of a test compound. The reaction was terminated with an addition of 1N hydrochloric acid after 2 minutes and the cells were destructed using 12% triton X-100. An amount of cAMP in the supernatant was assayed by Homogeneous Trangient Fluorescence (HTRF)

For assay [2], the target named is T1, DP receptor. The experiment in a line: Receptor binding assay, [3H]-PGD2, platelet membrane. The settings on record: [3H]-PGD2, human platelet membrane. How it is done: 2) Receptor Binding Assay
A prepared WP was homogenated and a membrane fraction was collected with high-speed centrifugation. A compound of the present invention or a reference compound A (No. IC-73 in WO 2003/097598) was added to the plate and [^3H]-PGD2 was also added. A platelet membrane, a protein concentration is 2 mg/mL, was added and mixed in the plate, and placed on ice for 2 hours. The reaction solution was transferred to a low protein-adsorptive filter and washed with a wash solution eight times using a cell harvester. After the final washing, water was removed sufficiently, and scintillator was added. DP inhibitory activity was investigated by measuring [^3H] by using Micro Beta.

In assay [3] the test system is OVA asthma model of rat. Nature of the assay: Test using OVA asthma model of rat (airway hyperresponsiveness, infiltration of inflammatory cells, mucus-secretion). The settings on record: po, 72 h. The class given is in vivo, Brown Norway (BN) Rats. Here is the method:
Test Using OVA Asthma Model of Rat
Brown Norway (BN) Rats were sensitized by i.p. administration of 0.1 mg/mL of ovalbumin (OVA) and 1 mg of aluminum hydroxide gel. A solution of 1% OVA was aerosolized by ultrasonic nebulizer (NE-U17) and the rats were subjected to inhalation exposure of the aerosol for 30 minutes in an exposing chamber 12, 19, 26 and 33 days after the sensitization. One hour before the 4th exposure of the antigen, compounds of the present invention were administered in a dose of 10 mg/kg p.o. once a day for three days consecutively. In a control group, 0.5% of methyl cellulose was administered in place of the compound of the present invention.
Under pentobarbital anesthesia (80 mg/kg, i.p.), acetylcholine (3.9, 7.8, 15.6, 31.3, 62.5, 125, 250 and 500 μg/kg) was injected to jugular vein of the rats successively from a lower dose at intervals of 5 minutes three days after the fourth exposure to the antigen, and immediate contractile reaction of airways (an increase of insufflation pressure) was measured by a modified method of Konnzett & Ririssler. Inhibition rate of airway hyperresponsiveness against the control group was calculated based on area under the curve (AUC) obtained from concentration-response curve of acetylcholine.
After the measurement of increased hyperresponsive airway was completed, bronchoalveoli of the rats were washed with 5 mL of saline three times. Total cell number in the washings was counted by a hemacytometer under light microscope, and inhibition rates of infiltration of inflammatory cells against the control group were calculated. Further, mucin in the airway lavage fluid was measured by ELISA method using jacalin, a mucin-binding lectin, and the inhibition rates of mucus-secretion against the control group were calculated.

[4] abbreviates: read-out: IC50 (50% DP-inhibitory concentration in the cAMP assay).
The mark [5] stands for this setting: BN rats, 10 mg/kg p.o. once a day for three days, mucin in airway lavage fluid by ELISA against control group, read-out: inhibition rate (%) mucus-secretion.
Setting [6] is: BN rats, 10 mg/kg p.o. once a day for three days, total cell number in bronchoalveolar washings against control group, read-out: inhibition rate (%) infiltration of inflammatory cells.
The mark [7] stands for this setting: read-out: inhibition rate (%) airway hyperresponsiveness.

For the compound `CC(C)Oc1ccc(S(=O)(=O)N2CCN(c3cc(OCC(=O)O)cc(-c4ccoc4)c3)CC2)cc1` [II-38], the pIC50 in assay [1] (setting [4]) was 6.19. Further, in assay [2], the pKi was 6.60. Further, the inhibition in vivo at 10 mg/kg was determined as 71% in assay [3] (setting [5]), 69% in assay [3] (setting [6]) and 39% in assay [3] (setting [7]).

`CC(C)Oc1ccc(S(=O)(=O)N2CCN(c3ccc(Cl)c(OCC(=O)O)c3)CC2C)cc1` (centres unmarked) [II-43]: the pIC50 in assay [1] (setting [4]) was 6.13. This compound also had a pKi in assay [2] of 5.64. Besides, the inhibition in vivo at 10 mg/kg in assay [3] (setting [5]) came out at 98%; in assay [3] (setting [6]), 33%; in assay [3] (setting [7]), 56%.

For `CC(C)Oc1ccc(S(=O)(=O)N2CCN(c3ccc(-c4ccoc4)c(OCC(=O)O)c3)CC2)cc1` [II-54], the pIC50 in assay [1] is 6.38. Besides, the pKi in assay [2] was 6.57. Further, the inhibition in vivo at 10 mg/kg worked out at 106% in assay [3] (setting [5]), 39% in assay [3] (setting [6]) and 119% in assay [3] (setting [7]).

In the case of `CC(C)Oc1ccc(S(=O)(=O)N2CCN(c3ccc(C#N)c(OCC(=O)O)c3)CC2)cc1` [II-80], in assay [1] (setting [4]), the pIC50 is 6.70. This compound showed a negative logarithm of the Ki (pKi) in assay [2] of 6.64. Also, the inhibition in vivo at 10 mg/kg in assay [3] (setting [5]) came to 82%; in assay [3] (setting [6]) it was 57%; in assay [3] (setting [7]), 39%.

As to `CC(C)Oc1ccc(S(=O)(=O)N2CCN(c3ccc(-c4cnco4)c(OCC(=O)O)c3)CC2)cc1` [II-84], the pIC50 in assay [1] is 6.74. In assay [2], the negative logarithm of the Ki (pKi) is 6.48. In addition, the inhibition in vivo at 10 mg/kg in assay [3] (setting [5]) amounted to 56%; in assay [3] (setting [6]), 54%; in assay [3] (setting [7]), 82%.

In the case of `CC(C)Oc1ccc(S(=O)(=O)N2CCN(c3ccc(-c4nccs4)c(OCC(=O)O)c3)CC2)cc1` [II-92], the pIC50 in assay [1] (setting [4]) was 6.44. The pKi in assay [2] is 6.24. Besides, the results for the inhibition in vivo at 10 mg/kg in assay [3] (setting [5]), in assay [3] (setting [6]) and in assay [3] (setting [7]) were 44%, 46% and 53%, respectively.

`CC(C)Oc1ccc(S(=O)(=O)N2CCN(c3ccc(-c4cocn4)c(OCC(=O)O)c3)CC2)cc1` [II-96]: the pIC50 in assay [1] (setting [4]) was 6.54. This compound showed a negative logarithm of the Ki (pKi) in assay [2] of 6.48. Further, the inhibition in vivo at 10 mg/kg was 52% in assay [3] (setting [5]), 46% in assay [3] (setting [6]) and 105% in assay [3] (setting [7]).
